The values that follow come from patent US6809193B2, “Antisense oligonucleotide compositions and methods for the modulation of JNK proteins” (ISIS Pharmaceuticals, Inc., priority 1997, dated 2004).

In data set [1] the test system is JNK2 mRNA. In words: Northern assay, JNK2 mRNA expression in A549 cells. Type of data set: cell-based, human. As to conditions: JNK2 mRNA, A549 cells, 400 nM oligonucleotide, relative to control. On the procedure:
In order to evaluate the activity of potential JNK-modulating oligonucleotides, human lung carcinoma cell line A549 (American Type Culture Collection, 10801 University Boulevard, Manassas, Va. 20110-2209, No. ATCC CCL-185) cells or other cell lines as indicated in the Examples, were grown and treated with oligonucleotides or control solutions as detailed below. After harvesting, cellular extracts were prepared and examined for specific JNK mRNA levels or JNK protein levels (i.e., Northern or Western assays, respectively). In all cases, “% expression” refers to the amount of JNK-specific signal in an oligonucleotide-treated cell relative to an untreated cell (or a cell treated with a control solution that lacks oligonucleotide), and “% inhibition” is calculated as
100%−%Expression=%Inhibition.
The mRNA expression of each JNK protein was determined by using a nucleic acid probe specifically hybridizable thereto. Nucleic acid probes specific for JNK1, JNK2 and JNK3 are described in Examples 3, 4 and 5, respectively. The probes were radiolabelled by means well known in the art (see, e.g., Short Protocols in Molecular Biology, 2nd Ed., Ausubel et al., Eds., John Wiley & Sons, New York, 1992, pages 3-11 to 2-3-44 and 4-17 to 4-18; Ruth, Chapter 6 In: Methods in Molecular Biology, Vol. 26: Protocols for Oligonucleotide Conjugates, Agrawal, ed., Humana Press Inc., Totowa, N.J., 1994, pages 167-185; and Chapter 10 In: Molecular Cloning: A Laboratory Manual, 2nd Ed., Sambrook et al., Eds., pages 10.1-10.70). The blots were stripped and reprobed with a ^32P-labeled glyceraldehyde 3-phosphate dehydrogenase (G3PDH) probe (Clontech Laboratories, Inc., Palo Alto, Calif.) in order to confirm equal loading of RNA and to allow the levels of JNK transcripts to be normalized with regard to the G3PDH signals.
A549 cells were grown in T-75 flasks until 80-90% confluent. At this time, the cells were washed twice with 10 mL of media (DMEM), followed by the addition of 5 mL of DMEM containing 20 μg/mL of LIPOFECTIN™ (i.e., 1:1 (w/w) DOTMA/DOPE, Life Technologies, Gaithersburg, Md.; DOTMA=N-[1-(2,3-dioleyoxy)propyl]-N,N,N-trimethylammonium chloride; DOPE=dioleoyl phosphatidylethanolamine). The oligonucleotides were added from a 10 μM stock solution to a final concentration of 400 nM, and the two solutions were mixed by swirling the flasks. As a control, cells were treated with LIPOFECTIN™ without oligonucleotide under the same conditions and for the same times as the oligonucleotide-treated samples. After 4 hours at 37° C., the medium was replaced with fresh DMEM containing 10% serum. The cells were allowed to recover for 18 hours. Total cellular RNA was then extracted in guanidinium, subject to gel electrophoresis and transferred to a filter according to techniques known in the art (see, e.g., Chapter 7 In: Molecular Cloning: A Laboratory Manual, 2nd Ed., Sambrook et al., Eds., pages 7.1-7.87, and Short Protocols in Molecular Biology, 2nd Ed., Ausubel et al., Eds., John Wiley & Sons, New York, 1992, pages 2-24 to 2-30 and 4-14 to 4-29). Filters were typically hybridized overnight to a probe specific for the particular JNK gene of interest in hybridization buffer (25 mM KPO4, pH 7.4; 5×SSC; 5× Denhardt's solution, 100 μg/ml Salmon sperm DNA and 50% formamide) (Alahari et al., Nucl. Acids Res., 1993, 21, 4079). This was followed by two washes with 1×SSC, 0.1% SDS and two washes with 0.25×SSC, 0.1% SDS. Hybridizing bands were visualized by exposure to X-OMAT AR film and quantitated using a PHOSPHORIMAGER™ essentially according to the manufacturer's instructions (Molecular Dynamics, Sunnyvale, Calif.).
In initial screenings of a set of oligonucleotides derived from the JNK2 sequence (Table 9) for biological activity, a cDNA clone of JNK2 (Kallunki et al., Genes & Development, 1994, 8, 2996) was radiolabeled and used as a JNK2-specific probe in Northern blots. […]

Data set [2] deals with JNK1 mRNA. In words: Northern assay, JNK1 mRNA expression in A549 cells. As to conditions: for RNA % Inhibition: JNK1 mRNA; for dose- and sequence-dependent response on JNK1 mRNA levels: A549 cells, 50, 100, 200 and 400 nM. Type of data set: cell-based, human.
Data set [3] has as its system rat JNK2 mRNA. Kind of data set: Northern assay, rat JNK2 (p54a) mRNA in A10 cells. As to conditions: for inhibition of rat JNK2 mRNA levels: Table 22; for capacity to modulate both JNK1 and JNK2 (Pan JNK): rat JNK1 and JNK2 mRNA. Type of data set: cell-based. Here is the method: (§1) In order to study the role of JNK proteins in animal models, oligonucleotides targeted to the genes encoding JNK1, JNK2 and JNK3 of Rattus norvegicus were prepared. These oligonucleotides are 2′-methoxyethoxy, phosphodiester/2′-hydroxyl, phosphorothioate/2′-methoxyethoxy, phosphodiester “gapmers” in which every cytosine residue is 5-methylcytosine (msc). These antisense compounds were synthesized according to the methods of the disclosure. Certain of these oligonucleotides are additionally specifically hybridizable to JNK genes from other species as indicated herein. The oligonucleotides described in this Example were tested for their ability to modulate rat JNK mRNA levels essentially according to the methods described in the preceding Examples, with the exceptions that the cell line used was rat A10 aortic smooth muscle cells (ATCC No. ATCC CRL-1476) and the probes used were specific for rat JNK1, JNK2 or JNK3 (see infra). A10 cells were grown and treated with oligonucleotides essentially as described by (Cioffi et al. Mol. Pharmacol., 1997, 51, 383).
(§2) These antisense compounds were tested for their ability to modulate levels of p54? (JNK1) and p54a (JNK2) mRNA in A10 cells via Northern assays. Due to the high degree of sequence identity between the human and rat genes, radiolabeled human JNK1 (Example 3) and JNK2 (Example 4) cDNAs functioned as specific probes for the rat homologs.
These antisense compounds were tested for their ability to modulate levels of p54a (JNK2) mRNA in A10 cells using the radiolabeled human JNK2 cDNA as a probe as described supra. Oligonucleotides showing levels of inhibition from≧about 60% to about 100% of rat JNK2 mRNA levels include ISIS Nos. 18254, 18255, 18257, 18258, 18259, 18260 and 18265 (SEQ ID NOS:125, 126, 128, 129, 130, 131 and 136, respectively). These oligonucleotides are preferred embodiments of the invention for modulating rat JNK2 expression. […] These oligonucleotides are thus more preferred embodiments of the invention for modulating rat JNK2 expression. ISIS 18259 (SEQ ID NO:130) was chosen for use in further studies (infra).
(§3) A dose response study was conducted using oligonucleotides targeted to rat JNK1 (ISIS 21859; SEQ ID NO:113) and JNK2 (ISIS 18259; SEQ ID NO:130) and Northern assays.

Data set [4] relates to rat JNK1 mRNA. In words: Northern assay, rat JNK1 (p54?) mRNA in A10 cells. Type of data set: cell-based. As to conditions: for inhibition of rat JNK1 mRNA levels: Table 20. Here is the method: as §1, §2, §3
Setting [5] is: t = 48 h, 300 nM for initial 20 hours then 200 nM for 4 hours.

Strand notation (5' to 3'): a small letter for the sugar, then the base; units joined by * are phosphorothioate-linked, units joined directly phosphodiester-linked; [ ] holds rarer units or linkages, { } end groups; capitals alone tell only the bases. e = 2'-O-(2-methoxyethyl) (MOE); [5mC] = 5-methylcytosine; d = 2'-deoxy (DNA)

As to “12567 (antisense dG*dG*dT*dC*dC*dC*dG*dT*dC*dG*dA*dG*dG*dC*dA*dT*dC*dA*dA*dG) [compound 12567]”, the “% EXPRESSION” value in data set [1] is 18%.
For the substance “15348 (antisense CTCTCTGTAGGCCCGCTTGG; wingmer, 5' 2'-MOE, phosphorothioate, chemistry not fully specified) [compound 15348]”, the “RNA % Inhibition” value in data set [2] (setting [5]) and in data set [2] (t = 72 h) was greater than 70% each time.
For the substance “15350 (antisense CTCTCTGTAGGCCCGCTTGG; wingmer, 3' P=O 2'-MOE, chemistry not fully specified) [compound 15350]”, the “RNA % Inhibition” value in data set [2] (setting [5]) is 50.8%.
“15351 (antisense CTCTCTGTAGGCCCGCTTGG; wingmer, 5' P=O 2'-MOE, chemistry not fully specified) [compound 15351]”: the “RNA % Inhibition” value in data set [2] (setting [5]) is on record as greater than 70%.
Regarding “18257 (antisense eGeAeTeAeT*d[5mC]*dA*dA*d[5mC]*dA*dT*dT*d[5mC]*dT*d[5mC]*e[5mC]eTeTeGeT) [compound 18257]”, the “inhibition of rat JNK2 mRNA levels” value in data set [3] (A10 cells) is no less than 60%.
On to “18259 (antisense eGe[5mC]eTe[5mC]eA*dG*dT*dG*dG*dA*d[5mC]*dA*dT*dG*dG*eAeTeGeAeG) [compound 18259]”, for which the “dose response, levels of mRNA encoding rat JNK2” value in data set [3] (A10 cells, Northern assays) is recorded as “specifically modulate”.
Broadly, the % Inhibition is how much of the control response was suppressed. Low readings indicate little suppression, high ones strong suppression. Regarding “18260 (antisense eAeTe[5mC]eTeG*d[5mC]*dG*dA*dG*dG*dT*dT*dT*d[5mC]*dA*eTe[5mC]eGeGe[5mC]) [compound 18260]”, in data set [3] (A10 cells), the “inhibition of rat JNK2 mRNA levels” value is no less than 60%. Moreover, the “% Inhibition” value in data set [3] (rat JNK2 (p54a) mRNA in A10 cells, control = LIPOFECTIN only = 0%) was 59%. In addition, the “% EXPRESSION” value in data set [3] (rat JNK2 (p54a) mRNA in A10 cells, control = LIPOFECTIN only = 100%) was determined as 41%.
On to “18265 (antisense eTeGeTe[5mC]eA*dG*d[5mC]*dT*d[5mC]*dT*dA*d[5mC]*dA*dT*dT*eAeGeGe[5mC]eA) [compound 18265]”, for which, in data set [3] (A10 cells), the “inhibition of rat JNK2 mRNA levels” value was no less than 60%.
For the substance “21858 (antisense CCTGCTCGCGGCTCCGCGTT; 2'-O-methyl wings, phosphorothioate gap, chemistry not fully specified) [compound 21858]”, the “inhibition of rat JNK1 mRNA levels” value in data set [4] was “at least 90%”.
With “21859 (antisense CTCATGATGGCAAGCAATTA; 2'-O-methyl wings, phosphorothioate gap, chemistry not fully specified) [compound 21859]”, the “dose response, levels of mRNA encoding rat JNK1” value in data set [4] (Northern assays) was “specifically modulate levels of mRNA encoding JNK1”. Moreover, the “inhibition of rat JNK1 mRNA levels” value in data set [4] is listed as “at least 90%”.
“21860 (antisense TGTTGTCACGTTTACTTCTG; 2'-O-methyl wings, phosphorothioate gap, chemistry not fully specified) [compound 21860]”: the “inhibition of rat JNK1 mRNA levels” value in data set [4] is “at least 90%”.
With “21861 (antisense CGGTAGGCTCGCTTAGCATG; 2'-O-methyl wings, phosphorothioate gap, chemistry not fully specified) [compound 21861]”, the “inhibition of rat JNK1 mRNA levels” value in data set [4] is “at least 90%”. Moreover, in data set [3] (A10 cells), the “capacity to modulate both JNK1 and JNK2 (Pan JNK)” value is “demonstrated a capacity to modulate both JNK1 and JNK2”.
Regarding “21862 (antisense CTAGGGATTTCTGTGGTGTG; 2'-O-methyl wings, phosphorothioate gap, chemistry not fully specified) [compound 21862]”, the “inhibition of rat JNK1 mRNA levels” value in data set [4] was “at least 90%”.
Regarding “21864 (antisense TCGTTCCTGCAGTCCTTGCC; 2'-O-methyl wings, phosphorothioate gap, chemistry not fully specified) [compound 21864]”, in data set [4], the “inhibition of rat JNK1 mRNA levels” value is “at least 90%”.
Still for that read-out and setting: for “21865 (antisense CCATTTCTCCCATAATGCAC; 2'-O-methyl wings, phosphorothioate gap, chemistry not fully specified) [compound 21865]” the value was “at least 90%”.
On the same count and under the same terms, for “21866 (antisense TGAATTCAGGACAAGGTGTT; 2'-O-methyl wings, phosphorothioate gap, chemistry not fully specified) [compound 21866]” the value was “at least 90%”.
Consider “21867 (antisense AGCTTCGTCTACGGAGATCC; 2'-O-methyl wings, phosphorothioate gap, chemistry not fully specified) [compound 21867]”, for which, in data set [4], the “inhibition of rat JNK1 mRNA levels” value is “at least 90%”. Besides, the “capacity to modulate both JNK1 and JNK2 (Pan JNK)” value in data set [3] (A10 cells) is “demonstrated a capacity to modulate both JNK1 and JNK2”.
As for “C^sC^sA^sA^sG^sC^sG^sG^sG^sC^sC^sT^sA^sC^sA^sG^sA^sG^sA^sG (sense dC*dC*dA*dA*dG*dC*dG*dG*dG*dC*dC*dT*dA*dC*dA*dG*dA*dG*dA*dG) [ISIS 14320, reference compound]”, in data set [2], the “dose- and sequence-dependent response on JNK1 mRNA levels” value is reported as “neither of the control oligonucleotides effect any consistent response”.
The same measure, in the same setting: in the case of “C^sT^sT^sT^sC^sC^sG^sT^sT^sG^sG^sA^sC^sC^sC^sC^sT^sG^sG^sG (dC*dT*dT*dT*dC*dC*dG*dT*dT*dG*dG*dA*dC*dC*dC*dC*dT*dG*dG*dG; further chemistry not given here) [ISIS 14321, reference compound]” it was “neither of the control oligonucleotides effect any consistent response”.
